Data from US8410150B2, “Inhibitors of carnitine palmitoyltransferase and treating cancer” (University Health Network, priority 2007, dated 2013).

Biological target: T1, human CPT1A (Homo sapiens, UniProt P50416)
T1 construct: made in house; host or cells: Saccharomyces cerevisiae (pESC-trp) or cultured mammalian cells (pCDNA3.1); mitochondrial extract
T1 sequence (P50416 1-773): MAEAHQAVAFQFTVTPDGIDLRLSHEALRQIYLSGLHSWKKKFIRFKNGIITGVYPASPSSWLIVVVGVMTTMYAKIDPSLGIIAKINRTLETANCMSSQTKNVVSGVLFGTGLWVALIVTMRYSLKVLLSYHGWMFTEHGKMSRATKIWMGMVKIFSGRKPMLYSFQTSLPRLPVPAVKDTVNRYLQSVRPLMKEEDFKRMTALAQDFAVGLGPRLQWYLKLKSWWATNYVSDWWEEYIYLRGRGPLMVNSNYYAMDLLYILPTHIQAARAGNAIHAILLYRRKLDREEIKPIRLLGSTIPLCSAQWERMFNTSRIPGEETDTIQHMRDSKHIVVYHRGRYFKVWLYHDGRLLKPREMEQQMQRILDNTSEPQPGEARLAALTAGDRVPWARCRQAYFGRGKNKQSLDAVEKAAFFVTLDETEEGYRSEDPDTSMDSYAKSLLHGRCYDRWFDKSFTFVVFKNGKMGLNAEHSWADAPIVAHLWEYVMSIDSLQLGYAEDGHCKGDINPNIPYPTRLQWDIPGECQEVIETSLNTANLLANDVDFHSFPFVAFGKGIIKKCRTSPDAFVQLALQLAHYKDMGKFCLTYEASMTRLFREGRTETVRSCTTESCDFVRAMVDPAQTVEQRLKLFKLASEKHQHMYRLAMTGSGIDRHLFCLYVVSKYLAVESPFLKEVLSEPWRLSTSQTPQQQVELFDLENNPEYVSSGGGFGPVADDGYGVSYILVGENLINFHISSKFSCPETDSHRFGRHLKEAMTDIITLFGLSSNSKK
Assay: Human CPT1A LC/MS assay
Format: biochemical
Settings: human CPT1A LC/MS assay, dose response format
In short: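 Mitochondrial extracts (1.6 μg protein) expressing human CPT1A, preincubated 10 min with compound in 20% DMSO, then reacted 10 min at room temperature with 20 μM palmitoyl-CoA, 50 μM L-carnitine (pH 7.5). Palmitoyl carnitine was quantified by LC/MS against a myristoyl carnitine standard; 16-point, 2-fold titrations gave dose response.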

SMILES | IC50 [µM]
C[N+](C)(C)C[C@@H](CC(=O)O)NC(=O)Nc1ccccc1I [Example S99, (R)-3-carboxy-2-(3-(2-iodophenyl)ureido)-N,N,N-trimethylpropan-1-aminium] | > 2500
C[N+](C)(C)C[C@@H](CC(=O)[O-])NC(=O)Nc1ccccc1Oc1ccccc1 [Example S100, (R)-3-carboxy-N,N,N-trimethyl-2-(3-(2-phenoxyphenyl)ureido)propan-1-aminium] | > 2500
C[N+](C)(C)C[C@@H](CC(=O)[O-])NC(=O)Nc1ccccc1-c1ccccc1 [Example S101, (R)-2-(3-biphenyl-2-ylureido)-3-carboxy-N,N,N-trimethylpropan-1-aminium] | 1000 to 2500
CCCCCCC#Cc1cccc(NS(=O)(=O)N[C@H](CC(=O)[O-])C[N+](C)(C)C)c1 [Example S110, (R)-3-(N-(3-(oct-1-ynyl)phenyl)sulfamoylamino)-4-(trimethylammonio) butanoate] | 10 to 100
CCCCCCC#Cc1cccc(N(C)S(=O)(=O)N[C@H](CC(=O)[O-])C[N+](C)(C)C)c1 [Example S112, (R)-3-(N—(N-methyl-N-(3-(oct-1-ynyl)phenyl)sulfamoyl)amino)-4-(trimethyl-ammonio)butanoate] | 10 to 100
CCCCCCCCc1cccc(N(C)S(=O)(=O)N[C@H](CC(=O)O)C[N+](C)(C)C)c1 [Example S113, (R)-3-carboxy-N,N,N-trimethyl-2-(N-methyl-N-(3-octylphenyl)sulfamoylamino)propan-1-aminium 2,2,2-trifluoroacetate] | 1 to 10
C[N+](C)(C)C[C@@H](CC(=O)[O-])NC(=O)c1ccc(Br)o1 [Example S114, (R)-3-(5-bromofuran-2-carboxamido)-4-(trimethylammonio)butanoate] | 100 to 1000
C[N+](C)(C)C[C@@H](CC(=O)O)NC(=O)c1ccc(C#Cc2ccsc2)o1 [Example S116, (R)-3-carboxy-N,N,N-trimethyl-2-(5-(thiophen-3-ylethynyl)furan-2-carboxamido)propan-1-aminium 2,2,2-trifluoroacetate] | 10 to 100
COc1ncc(C#Cc2ccc(C(=O)N[C@H](CC(=O)O)C[N+](C)(C)C)o2)cn1 [Example S117] | 100 to 1000
CCCCCCc1ccc(C#Cc2ccc(C(=O)N[C@H](CC(=O)O)C[N+](C)(C)C)o2)s1 [Example S118, (R)-3-carboxy-2-(5-((5-hexylthiophen-2-yl)ethynyl)furan-2-carboxamido)-N,N,N-trimethylpropan-1-aminium 2,2,2-trifluoroacetate] | 1 to 10
CCCCCCC(=O)C(=O)N[C@H](CC(=O)O)C[N+](C)(C)C [Example S120, (R)-3-carboxy-N,N,N-trimethyl-2-(2-oxooctanamido)propan-1-aminium 2,2,2-trifluoroacetate] | 1 to 10
CCCCCc1ccc(CCC2CCC(C(=O)N[C@H](CC(=O)[O-])C[N+](C)(C)C)O2)cc1 (stereo partly drawn) [Example S121, (3R)-3-(5-(4-pentylphenethyl)tetrahydrofuran-2-carboxamido)-4-(trimethylammonio)butanoate] | 1 to 10
CCCCCCOc1cccc(C#Cc2ccc(C(=O)N[C@H](CC(=O)[O-])C[N+](C)(C)C)o2)c1 [Example S122, (R)-3-(5-((3-(hexyloxy)phenyl)ethynyl)furan-2-carboxamido)-4-(trimethylammonio)butanoate] | 1 to 10

More lines, now with the values ahead:

IC50 [µM] | SMILES
≤ 1 | C[N+](C)(C)C[C@@H](CC(=O)O)NC(=O)c1ccc(CCc2ccsc2)s1 [Example S98, (R)-3-carboxy-N,N,N-trimethyl-2-(5-(2-(thiophen-3-yl)ethyl)thiophene-2-carboxamido)propan-1-aminium 2,2,2-trifluoroacetate]
≤ 1 | CCCCCc1ccc(CCc2ccc(C(=O)N[C@H](CC(=O)O)C[N+](C)(C)C)s2)cc1 [Example S102, (R)-3-carboxy-N,N,N-trimethyl-2-(5-(4-pentylphenethyl)thiophene-2-carboxamido)propan-1-aminium 2,2,2-trifluoroacetate]
≤ 1 | CCCCCCCCOc1ccc(NS(=O)(=O)N[C@H](CC(=O)[O-])C[N+](C)(C)C)cc1 [Example S103, (R)-3-(N-(4-(octyloxy)phenyl)sulfamoylamino)-4-(trimethylammonio) butanoate]
1 to 10 | CCCCCCCC#Cc1ccc(NS(=O)(=O)N[C@H](CC(=O)[O-])C[N+](C)(C)C)cc1 [Example S104, (R)-3-(N-(4-(non-1-ynyl)phenyl)sulfamoylamino)-4-(trimethylammonio) butanoate]
≤ 1 | CCCCCCCCCc1ccc(NS(=O)(=O)N[C@H](CC(=O)[O-])C[N+](C)(C)C)cc1 [Example S105, (R)-3-(N-(4-nonylphenyl)sulfamoylamino)-4-(trimethylammonio)-butanoate]
1 to 10 | CCCCCCC#Cc1ccc(NS(=O)(=O)N[C@H](CC(=O)[O-])C[N+](C)(C)C)cc1 [Example S106, (R)-3-(N-(4-(oct-1-ynyl)phenyl)sulfamoylamino)-4-(trimethylammonio) butanoate]
1 to 10 | CCCCCc1ccc(C#Cc2ccc(NS(=O)(=O)N[C@H](CC(=O)[O-])C[N+](C)(C)C)cc2)cc1 [Example S107, (R)-3-(N-(4-((4-pentylphenyl)ethynyl)phenyl)sulfamoylamino)-4-(trimethylammonio)butanoate]
≤ 1 | CCCCCc1ccc(CCc2ccc(NS(=O)(=O)N[C@H](CC(=O)[O-])C[N+](C)(C)C)cc2)cc1 [Example S108, (R)-3-(N-(4-(4-pentylphenethyl)phenyl)sulfamoylamino)-4-(trimethyl-ammonio)butanoate]
≤ 1 | CCCCCCOc1cccc(OCCCCCN(C)S(=O)(=O)N[C@H](CC(=O)[O-])C[N+](C)(C)C)c1 [Example S109, (R)-3-(N-(5-(3-(hexyloxy)phenoxy)pentyl)-N-methylsulfamoylamino)-4-(trimethylammonio)butanoate]
≤ 1 | CCCCCCCCc1cccc(NS(=O)(=O)N[C@H](CC(=O)[O-])C[N+](C)(C)C)c1 [Example S111, (R)-3-(N-(3-octylphenyl)sulfamoylamino)-4-(trimethylammonio)-butanoate]
≤ 1 | CCCCCc1ccc(C#Cc2ccc(C(=O)N[C@H](CC(=O)[O-])C[N+](C)(C)C)o2)cc1 [Example S115, (R)-3-carboxy-N,N,N-trimethyl-2-(5-((4-pentylphenyl)ethynyl)furan-2-carboxamido)propan-1-aminium 2,2,2-trifluoroacetate]
≤ 1 | CCCCCCc1ccc(CCc2ccc(C(=O)N[C@H](CC(=O)O)C[N+](C)(C)C)o2)s1 [Example S119, (R)-3-(5-(2-(5-hexylthiophen-2-yl)ethyl)furan-2-carboxamido)-4-(trimethylammonio)butanoate]
≤ 1 | CCCCCc1ccc(CCc2ccc(C(=O)N[C@H](CC(=O)O)C[N+](C)(C)C)o2)cc1 [Example S123, (R)-3-carboxy-N,N,N-trimethyl-2-(5-(4-pentylphenethyl)furan-2-carboxamido)propan-1-aminium 2,2,2-trifluoroacetate]
≤ 1 | C[N+](C)(C)C[C@@H](CC(=O)O)NC(=O)c1ccc(CCc2ccsc2)o1 [Example S124, (R)-3-carboxy-N,N,N-trimethyl-2-(5-(2-(thiophen-3-yl)ethyl)furan-2-carboxamido)propan-1-aminium 2,2,2-trifluoroacetate]
